# Measurements reported in PMC4117522, “Proteasome Inhibitors Alter Levels of Intracellular Peptides in HEK293T and SH-SY5Y Cells” (PLoS ONE, 2014).
# Several values for one entry are separate records, joined by “and”; a condition that tells them apart may be missing. Equal values may be shown once.
# What was measured:
# [1] = system: HEK293T cells; assay: Quantitative peptidomics (TMAB isotopic labels, LC-MS/MS) of inhibitor-treated HEK293T cells; format: cell-based, human
# Description: (§1) HEK293T and SH-SY5Y cells were grown to 80–90% confluence in DMEM and RPMI supplemented with 10% fetal bovine serum and penicillin/streptomycin. A single plate of cells (150 mm×25 mm) was used for each group. At the start of the experiment, media were removed from the plates and cells were washed with DPBS (138 mM NaCl, 8.06 mM Na2HPO4, 2.67 mM KCl, 1.47 mM KH2PO4, 0.9 mM CaCl2 and 0.49 mM MgCl2). This was followed by addition of serum-free media containing the proteasome or aminopeptidase inhibitors, or 0.05% DMSO as a control for the inhibitors that were soluble in DMSO. Each experiment consisted of two control groups and two or three replicate groups of cells treated with one of the inhibitors. The cells were incubated at 37°C for 20 minutes, following which media containing the inhibitor was removed, cells were washed with DPBS, detached from the plate by scraping into DPBS (without trypsin), and centrifuged at 800×g for 5 min. The wash buffer was supplemented with the appropriate inhibitor at the same concentration as used for the treatment, thereby ensuring that the changes induced in peptide levels were not reversed during harvesting of cells due to possible dissociation of the reversible inhibitors. The wash time (including centrifugation) was 15 minutes, for a total treatment time of 35 minutes. After centrifugation, the cell pellet was resuspended in 1 ml of 80°C water and incubated in an 80°C water bath for 20 minutes to inactivate proteases. The mixture was again centrifuged (13,000×g, 30 min, 4°C) and was stored at −80°C overnight. For peptide extraction, the samples were thawed and centrifuged again. The lysate was subsequently cooled on ice and acidified with HCl to a final concentration of 10 mM. After 15 min incubation on ice, the lysate was centrifuged at 13,000×g for 30 min at 4°C. To the supernatant, 250 µL of dibasic sodium phosphate (0.4 M, pH 9.5) was added and the mixture was stored at −80°C until labeling.
# (§2) The labeling protocol has been earlier described in detail. Each group within an experiment (control/treated) was labeled with a different isotopic tag. The TMAB-NHS labels were dissolved in DMSO to a concentration of 400 µg/µL and 15 mg of label was used per 150 mm plate of cells. […] At the beginning, the pH of the peptide extract was adjusted to 9.5 with 1 M NaOH. Labeling was performed over 8 rounds; 4.69 µL of the label was added to the extract every 20 min. The pH was measured between each round and if necessary, brought back to 9.5 for the first five rounds. For rounds 6–8, the pH was not adjusted after the addition of the TMAB-NHS reagent. After the final round of label addition, the pH was adjusted to 9.5 again and the extracts were incubated at room temperature for 90 min. Thereafter, 30 µL of 2.5 M glycine was added to quench any unreacted label. Following 40 min incubation at room temperature, the labeled extracts for a single experiment were pooled and filtered through Amicon Ultracel-10 K units. It is important to ensure that only N-terminal amines and lysine side-chain amines of peptides are TMAB-labeled and not tyrosines. To hydrolyze any labeled tyrosine, 30 µL of a 2 M solution of hydroxylamine hydrochloride (pH 3.7) was added over three rounds to the pooled and filtered sample. The pH was measured after the addition of hydroxylamine and adjusted to 9.0 with 1 M NaOH. The samples were desalted through PepClean C-18 spin columns (Thermo Scientific, Rockford, IL, USA) by following manufacturer’s instructions. Peptides were eluted using 160 µL of 0.5% TFA and 70% acetonitrile, frozen at −80°C and then lyophilized in a vacuum centrifuge and stored at −80°C until analysis by mass spectrometry.
# (§3) The LC-MS/MS experiments were performed on a Synapt G2 mass spectrometer coupled to a NanoAcquity capillary liquid chromatography system (Waters Co., Milford, MA, USA).
# [2] = system: SH-SY5Y cells; assay: Quantitative peptidomics (TMAB isotopic labels, LC-MS/MS) of inhibitor-treated SH-SY5Y cells; format: cell-based, human
# Description: as §1, §2, §3
smiles,measurement,setting,value
"CC(C)C[C@H](NC(=O)[C@H](CCc1ccccc1)NC(=O)CN1CCOCC1)C(=O)N[C@@H](Cc1ccccc1)C(=O)N[C@@H](CC(C)C)C(=O)[C@@]1(C)CO1 [carfilzomib, reference compound]",change in levels of intracellular peptides (peptidome),"[1]; HEK293T cells, 35 min, 2.5 µM MG132, 1 µM other inhibitors",decreased the levels of many peptides but also elevated levels of a number of other peptides
same,change in levels of intracellular peptides (peptidome),"[2]; SH-SY5Y cells, 35 min, 2.5 µM MG132, 1 µM other inhibitors",decreased the levels of many peptides but also elevated levels of a number of other peptides
CC(=O)N[C@@H](CSC(=O)[C@]1([C@@H](O)C(C)C)NC(=O)[C@H](C)[C@@H]1O)C(=O)O [Lactacystin],Relative Levels of peptide ADKVPKTAENFRAL (PPIA),"[2]; 1 uM, 35', SH-SY5Y",< 0.20
same,Relative Levels of peptide Ac-AAPVDLELKKAFTEL (PFDN1),"[2]; 1 uM, 35', SH-SY5Y",< 0.20
same,Relative Levels of peptide Ac-ASKRALVIL (PARK7),"[2]; 1 uM, 35', SH-SY5Y",0.25 and < 0.20 and 0.21
same,Relative Levels of peptide Ac-ASKRALVILA (PARK7),"[2]; 1 uM, 35', SH-SY5Y",0.52 and 0.32 and 0.42
same,Relative Levels of peptide Ac-MDTSRVQPIKL (RPS28),"[2]; 1 uM, 35', SH-SY5Y",0.47 and 0.49 and 0.51
same,Relative Levels of peptide Ac-SSEEGKLFVGGLNF (RBM3),"[2]; 1 uM, 35', SH-SY5Y",0.55 and 0.38 and 0.49
same,Relative Levels of peptide Ac-SYGRPPPDVEGMTSLKVDNL (SRSF2),"[2]; 1 uM, 35', SH-SY5Y",0.63 and 0.36 and 0.45
same,Relative Levels of peptide GAIRDIDL (SRSF1),"[2]; 1 uM, 35', SH-SY5Y",< 0.20
same,Relative Levels of peptide KHTGPGILSM (PPIA),"[2]; 1 uM, 35', SH-SY5Y",0.26 and 0.24 and 0.25
CC[C@H](C)[C@H](NC(=O)[C@H]([C@@H](C)CC)N(C)C(C)=O)C(=O)N[C@H](C(=O)N[C@@H](CC(C)C)C(=O)[C@@]1(C)CO1)[C@@H](C)O [Epox.],Relative Levels of peptide AAETVTKGGIMLPEKSQGKVLQA (HSPE1),"[1]; 0.2 uM, 1h, HEK",< 0.20
same,Relative Levels of peptide ADKVPKTAENFRAL (PPIA),"[1]; 0.2 uM, 1h, HEK",< 0.20
same,Relative Levels of peptide AGAAVDELGKVLTPTQV (PEBP1),"[1]; 0.2 uM, 1h, HEK",< 0.20
same,Relative Levels of peptide AKADGIVSKNF (RPS21),"[1]; 0.2 uM, 1h, HEK",< 0.20
same,Relative Levels of peptide APIKVGDAIPAVEVF (PRDX5),"[1]; 0.2 uM, 1h, HEK",< 0.20
same,Relative Levels of peptide APPTAYIDFARQK (TPI1),"[1]; 0.2 uM, 1h, HEK",0.58 and 0.64
same,Relative Levels of peptide ASQPDVDGFLVGGASLKPEFVDIINA (TPI1),"[1]; 0.2 uM, 1h, HEK",< 0.20
same,Relative Levels of peptide ASQPDVDGFLVGGASLKPEFVDIINAKQ (TPI1),"[1]; 0.2 uM, 1h, HEK",1.17 and 1.09
same,Relative Levels of peptide AVDGEPLGRVSF (PPIA),"[1]; 0.2 uM, 1h, HEK",< 0.20
same,Relative Levels of peptide Ac-AAPVDLELKKAFTEL (PFDN1),"[1]; 0.2 uM, 1h, HEK",< 0.20
same,Relative Levels of peptide Ac-ANLERTFIAIKPDGV (NME2),"[1]; 0.2 uM, 1h, HEK",< 0.20
same,Relative Levels of peptide Ac-ASKRALVIL (PARK7),"[1]; 0.2 uM, 1h, HEK",< 0.20
same,Relative Levels of peptide Ac-ASKRALVILA (PARK7),"[1]; 0.2 uM, 1h, HEK",< 0.20
same,Relative Levels of peptide Ac-MDTSRVQPIKL (RPS28),"[1]; 0.2 uM, 1h, HEK",< 0.20
same,Relative Levels of peptide Ac-MDTSRVQPIKLAR (RPS28),"[1]; 0.2 uM, 1h, HEK",0.95
same,Relative Levels of peptide Ac-SSEEGKLFVGGLNF (RBM3),"[1]; 0.2 uM, 1h, HEK",< 0.20
same,Relative Levels of peptide Ac-SYGRPPPDVEGMTSLKVDNL (SRSF2),"[1]; 0.2 uM, 1h, HEK",0.23 and 0.32
same,Relative Levels of peptide Ac-[…] (COX6B1),"[1]; 0.2 uM, 1h, HEK",< 0.20
same,Relative Levels of peptide EDENFILKHTGPGILSM (PPIA),"[1]; 0.2 uM, 1h, HEK",< 0.20
same,Relative Levels of peptide GAIRDIDL (SRSF1),"[1]; 0.2 uM, 1h, HEK",0.29 and 0.33
same,Relative Levels of peptide GFGDLKSPAGLQVL (EEF1B2),"[1]; 0.2 uM, 1h, HEK",< 0.20
same,Relative Levels of peptide GISTPEELGLDKV (COX5A),"[1]; 0.2 uM, 1h, HEK",< 0.20
same,Relative Levels of peptide GVQVETISPGDGRTFPKRGQT (FKBP1A),"[1]; 0.2 uM, 1h, HEK",0.72 and 0.45
same,Relative Levels of peptide KHTGPGILSM (PPIA),"[1]; 0.2 uM, 1h, HEK",< 0.20
same,Relative Levels of peptide PGIVELPTLEEL (NDUFA8),"[1]; 0.2 uM, 1h, HEK",< 0.20
same,Relative Levels of peptide SAMTEEAAVAIKAMAK (EIF5A),"[1]; 0.2 uM, 1h, HEK",0.36 and 0.21
same,Relative Levels of peptide SLGELIGTLNA (TPI1),"[1]; 0.2 uM, 1h, HEK",0.29 and < 0.20
same,Relative Levels of peptide VNPTVFFDI (PPIA),"[1]; 0.2 uM, 1h, HEK",< 0.20
same,Relative Levels of peptide AAETVTKGGIMLPEKSQGKVLQA (HSPE1),"[1]; 2 uM, 1h, HEK",< 0.20
same,Relative Levels of peptide ADKVPKTAENFRAL (PPIA),"[1]; 2 uM, 1h, HEK",< 0.20
same,Relative Levels of peptide AGAAVDELGKVLTPTQV (PEBP1),"[1]; 2 uM, 1h, HEK",< 0.20
same,Relative Levels of peptide AKADGIVSKNF (RPS21),"[1]; 2 uM, 1h, HEK",< 0.20
same,Relative Levels of peptide APIKVGDAIPAVEVF (PRDX5),"[1]; 2 uM, 1h, HEK",< 0.20
same,Relative Levels of peptide ASQPDVDGFLVGGASLKPEFVDIINA (TPI1),"[1]; 2 uM, 1h, HEK",< 0.20
same,Relative Levels of peptide ASQPDVDGFLVGGASLKPEFVDIINAKQ (TPI1),"[1]; 2 uM, 1h, HEK",< 0.20
same,Relative Levels of peptide AVDGEPLGRVSF (PPIA),"[1]; 2 uM, 1h, HEK",< 0.20
same,Relative Levels of peptide Ac-AAPVDLELKKAFTEL (PFDN1),"[1]; 2 uM, 1h, HEK",< 0.20
same,Relative Levels of peptide Ac-AEEGIAAGGVMDVNTALQEVLKT (RPS12),"[1]; 2 uM, 1h, HEK",0.61 and 0.42
same,Relative Levels of peptide Ac-ANLERTFIAIKPDGV (NME2),"[1]; 2 uM, 1h, HEK",< 0.20
same,Relative Levels of peptide Ac-ASKRALVIL (PARK7),"[1]; 2 uM, 1h, HEK",< 0.20
same,Relative Levels of peptide Ac-ASKRALVILA (PARK7),"[1]; 2 uM, 1h, HEK",< 0.20
same,Relative Levels of peptide Ac-MDTSRVQPIKL (RPS28),"[1]; 2 uM, 1h, HEK",< 0.20
same,Relative Levels of peptide Ac-MDTSRVQPIKLAR (RPS28),"[1]; 2 uM, 1h, HEK",0.64 and 0.94
same,Relative Levels of peptide Ac-MDTSRVQPIKLARVTKV (RPS28),"[1]; 2 uM, 1h, HEK",< 0.20
same,Relative Levels of peptide Ac-SSEEGKLFVGGLNF (RBM3),"[1]; 2 uM, 1h, HEK",< 0.20
same,Relative Levels of peptide Ac-SYGRPPPDVEGMTSLKVDNL (SRSF2),"[1]; 2 uM, 1h, HEK",< 0.20
same,Relative Levels of peptide EDENFILKHTGPGILSM (PPIA),"[1]; 2 uM, 1h, HEK",< 0.20
same,Relative Levels of peptide GESDDSILRLAKADGIVSKNF (RPS21),"[1]; 2 uM, 1h, HEK",< 0.20
same,Relative Levels of peptide GFGDLKSPAGLQVL (EEF1B2),"[1]; 2 uM, 1h, HEK",0.54 and 0.68
same,Relative Levels of peptide GISTPEELGLDKV (COX5A),"[1]; 2 uM, 1h, HEK",0.38 and 0.45
same,Relative Levels of peptide KHTGPGILSM (PPIA),"[1]; 2 uM, 1h, HEK",< 0.20
same,Relative Levels of peptide PGIVELPTLEEL (NDUFA8),"[1]; 2 uM, 1h, HEK",< 0.20
same,Relative Levels of peptide SAMTEEAAVAIKAMAK (EIF5A),"[1]; 2 uM, 1h, HEK",< 0.20
same,Relative Levels of peptide SLGELIGTLNA (TPI1),"[1]; 2 uM, 1h, HEK",0.52 and 0.30
same,Relative Levels of peptide VNPTVFFDI (PPIA),"[1]; 2 uM, 1h, HEK",< 0.20
